Laboratory results as given in PMC9221509, “Discovery of a Novel Antimicrobial Peptide, Temporin-PKE, from the Skin Secretion of Pelophylax kl. esculentus, and Evaluation of Its Structure-Activity Relationships” (Biomolecules, 2022).
Converted amounts (≈) assume the structure as drawn.

Legend:
Assay in all cases: microbe, parasite or virus in culture
S. aureus (ATCC 6538) = assay type: cell-based, Staphylococcus aureus; details: Staphylococcus aureus, ATCC6538, 15 replicates in three independent assays
Procedure: (§1) The antimicrobial activities of peptides were evaluated against the Gram-positive bacteria, S. aureus (ATCC 6538), methicillin-resistant Staphylococcus aureus (MRSA) (NCTC 12493), Enterococcus faecalis (E. faecalis) (NCTC 12697); the Gram-negative bacteria, E. coli (ATCC CRM 8739), Klebsiella pneumoniae (K. pneumoniae) (ATCC 43816), Pseudomonas aeruginosa (P. aeruginosa) (ATCC CRM 9027); and the yeast, Candida albicans (C. albicans) (ATCC CRM 10231). Clinical isolates of MRSA (B042 V2E1 A), E. coli (ATCC BAA-2340), K. pneumoniae (ATCC BAA-1705), and P. aeruginosa (B004 V2S2 B) were also used to determine their antimicrobial activities. The suspension of microorganisms in the logarithmic growth phase with a specific final density (Gram-negative and Gram-positive bacteria: 5 × 10^5 CFU/mL; yeast: 1 × 10^6 CFU/mL) was incubated with different peptide concentrations from 1 µM to 512 µM at 37 °C for 24 h. PBS was used as the negative control, and norfloxacin and amphotericin B were selected as the positive control for bacteria and yeast, respectively. Since the Norfloxacin had weak activities against P. aeruginosa (B004 V2S2 B) and K. pneumoniae (ATCC BAA 1705), gentamicin was used as the positive control for these two bacterial strains. The absorbance of each well was obtained using a microplate reader (EL808, Biolise BioTek, Winooski, VT, USA) set at 550 nm wavelength. The MIC value was the lowest concentration of a peptide that inhibits visible bacterial growth. Once the MIC values were determined, an aliquot from the bacterial culture exposed to the peptide at or above its MIC value was inoculated on a Mueller Hinton agar (MHA) and was incubated at 37 for 18 h. The MBC value was the lowest concentration of a peptide that kills 99.9% of bacteria.

MRSA (B042 V2E1 A) = assay type: cell-based, methicillin-resistant Staphylococcus aureus; details: Staphylococcus aureus, MRSA, clinical strain, 15 replicates in three independent assays
Procedure: as §1

MRSA (NCTC 12493) = assay type: cell-based, methicillin-resistant Staphylococcus aureus; details: Staphylococcus aureus, 15 replicates in three independent assays
Procedure: as §1

[1] = test system: K. pneumoniae (ATCC 43816); assay type: cell-based, Klebsiella pneumoniae; details: Klebsiella pneumoniae, ATCC43816, 15 replicates in three independent assays
Procedure: as §1

E. faecalis (NCTC 12697) = assay type: cell-based, Enterococcus faecalis; details: Enterococcus faecalis, NCTC12697, 15 replicates in three independent assays
Procedure: as §1

E. coli (ATCC BAA-2340) = assay type: cell-based, Escherichia coli; details: Escherichia coli, ATCCBAA2340, clinical strain, 15 replicates in three independent assays
Procedure: as §1

E. coli (ATCC CRM 8739) = assay type: cell-based, Escherichia coli; details: Escherichia coli, 15 replicates in three independent assays
Procedure: as §1

[2] = test system: P. aeruginosa (ATCC CRM 9027); assay type: cell-based, Pseudomonas aeruginosa; details: Pseudomonas aeruginosa, 15 replicates in three independent assays
Procedure: as §1

[3] = test system: C. albicans (ATCC CRM 10231); assay type: cell-based, Candida albicans; details: 15 replicates in three independent assays
Procedure: as §1

[4] = test system: K. pneumoniae (ATCC BAA-1705); assay type: cell-based, Klebsiella pneumoniae; details: Klebsiella pneumoniae, ATCCBAA1705, clinical strain, 15 replicates in three independent assays
Procedure: as §1

[5] = test system: P. aeruginosa (B004 V2S2 B); assay type: cell-based, Pseudomonas aeruginosa; details: Pseudomonas aeruginosa, clinical strain, 15 replicates in three independent assays
Procedure: as §1

[6] = 5 × 10^5 CFU/mL, 37 °C, 24 h, 1-512 µM, absorbance 550 nm, read-out: MIC
[7] = aliquot plated on MHA, 18 h, kills 99.9%, read-out: MBC

With `CCn1cc(C(=O)O)c(=O)c2cc(F)c(N3CCNCC3)cc21` [Norfloxacin, reference compound] the MIC (S. aureus (ATCC 6538); [6]) was 2 µM (≈ 0.639 µg/mL), the MBC (S. aureus (ATCC 6538); aliquot plated on MHA, 18 h, kills 99.9% of bacteria, read-out: MBC) was 2 µM (≈ 0.639 µg/mL) and the MIC (MRSA (B042 V2E1 A); [6]) was 2 µM (≈ 0.639 µg/mL). For the same molecule, the MBC (MRSA (B042 V2E1 A); [7]) was 2 µM (≈ 0.639 µg/mL), the MIC (MRSA (NCTC 12493); [6]) was 2 µM (≈ 0.639 µg/mL) and the MBC (MRSA (NCTC 12493); [7]) was 2 µM (≈ 0.639 µg/mL). For the same molecule, the MIC [1, 6] was 2 µM (≈ 0.639 µg/mL), the MBC [1, 7] was 2 µM (≈ 0.639 µg/mL) and the MIC (E. faecalis (NCTC 12697); [6]) was 4 µM (≈ 1.28 µg/mL). It also gave an MBC (E. faecalis (NCTC 12697); [7]) of 4 µM (≈ 1.28 µg/mL), an MIC (E. coli (ATCC BAA-2340); [6]) of 2 µM (≈ 0.639 µg/mL) and an MBC (E. coli (ATCC BAA-2340); [7]) of 2 µM (≈ 0.639 µg/mL). It also gave an MIC (E. coli (ATCC CRM 8739); [6]) of 1 µM (≈ 0.319 µg/mL), an MBC (E. coli (ATCC CRM 8739); [7]) of 1 µM (≈ 0.319 µg/mL) and an MIC [2, 6] of 2 µM (≈ 0.639 µg/mL). It also gave an MBC [2, 7] of 2 µM (≈ 0.639 µg/mL).
In the case of `C[C@@H]1[C@H](O)[C@@H](C)/C=C/C=C/C=C/C=C/C=C/C=C/C=C/[C@H](O[C@@H]2O[C@H](C)[C@@H](O)[C@H](N)[C@@H]2O)C[C@@H]2O[C@](O)(C[C@@H](O)C[C@@H](O)[C@H](O)CC[C@@H](O)C[C@@H](O)CC(=O)O[C@H]1C)C[C@H](O)[C@H]2C(=O)O` [amphotericin B, reference compound], the MBC ([3]; Candida albicans, aliquot plated on MHA, 18 h, kills 99.9%, read-out: MBC) is reported as 4 µM (≈ 3.7 µg/mL) and the MIC ([3]; yeast 1 × 10^6 CFU/mL, 37 °C, 24 h, 1-512 µM, absorbance 550 nm, read-out: MIC) is reported as 4 µM (≈ 3.7 µg/mL).
`CNC(C)C1CCC(N)C(OC2C(N)CC(N)C(OC3OCC(C)(O)C(NC)C3O)C2O)O1` (stereo not shown) [Gentamicin, reference compound] gave an MIC [4, 6] of 2 µM (≈ 0.955 µg/mL), an MBC [4, 7] of 2 µM (≈ 0.955 µg/mL) and an MIC [5, 6] of 1 µM (≈ 0.478 µg/mL). It also gave an MBC [5, 7] of 1 µM (≈ 0.478 µg/mL).
